# Measured values from patent EP0377642B1, “HERBICIDES FOR WEED CONTROL IN RICE” (E.I. DU PONT DE NEMOURS AND COMPANY, priority 1987, dated 1989).
# Test system: rice
# Test: Greenhouse test of Compound 1 and Compound 2, crop tolerance (Table 26)
# Assay type: in vivo
# Settings: treated 12 days after transplanting, rated 24 days after treatment; for % CONTROL OR INJURY LEMONT: indica rice variety Lemont; for % CONTROL OR INJURY M101: japonica rice variety M101
# Excerpt: Methyl 2-[[[[(4-methoxy-6-methyl-1,3,5-triazin-2-yl)amino]carbonyl]amino]sulfonyl]benzoate (Compound 1) and mixtures thereof with other compounds were applied as a spray (using a hand sprayer) to rice (either transplanted or direct seeded) in several rice growing areas in Southeast Asia and in the U.S. Tables 1-28 contain the results of these tests and clearly exemplify the utility of this invention. The details of each application are included in the appropriate table. [drawing 2]
smiles,measurement,setting,value
"COC(=O)c1ccccc1S(=O)(=O)NC(=O)Nc1nc(C)nc(OC)n1 [Compound 1, Methyl 2-[[[[(4-methoxy-6-methyl-1,3,5-triazin-2-yl)amino]carbonyl]amino]sulfonyl]benzoate]",% CONTROL OR INJURY LEMONT,rate 1 g ai/ha,10%
same,% CONTROL OR INJURY LEMONT,rate 2 g ai/ha,20%
same,% CONTROL OR INJURY LEMONT,rate 4 g ai/ha,40%
same,% CONTROL OR INJURY LEMONT,rate 8 g ai/ha,50%
same,% CONTROL OR INJURY M101,rate 1 g ai/ha,0%
same,% CONTROL OR INJURY M101,rate 2 g ai/ha,10%
same,% CONTROL OR INJURY M101,rate 4 g ai/ha,10%
same,% CONTROL OR INJURY M101,rate 8 g ai/ha,35%
